# Data published in patent EP2529745A1, “VEGF-D/VEGFR mediated regulation of dendrites” (Universität Heidelberg, priority 2011, dated 2012).
# Assays:
# VEGFD = assay: qRT-PCR analysis of VEGFD expression in cultured hippocampal neurons; format: cell-based, mouse
# Description: RNA extraction and cDNA synthesis. Total RNA was isolated at DIV10 to DIV13 from hippocampal primary neuron cultures or isolated brain tissues with Rneasy Mini Kit (Qiagen, Hilden, Germany) including an optional Dnase I treatment at room temperature for 15 min according to manufacturer's instructions (Qiagen). 1.2 µg of extracted RNA was reverse transcribed into first strand cDNA using High Capacity cDNA Reverse Transcription kit (Applied Biosystems, Foster City, CA).
# Real time quantitative PCR. Quantitative reverse transcriptase PCR (qRT-PCR) was done on an ABI7300 thermal cycler using Universal qRT-PCR master mix with TaqMan Gene Expression Assays for the indicated genes (Applied Biosystems). The following TaqMan Gene Expression Assays were used in this study: Gusb (Mm00446953_m1), cFos (Mm00487425_m1), VEGFD (Mm00438965_m1), VEGFC (Mm01202432_m1), VEGF (Mm01281449_m1), VEGFR3 (Mm01292618_m1), beta-actin (Mm00607939_s1), beta-2 microglobulin (Mm00437762_m1), CBP (Mm01342435_m1), p38 MAPK alpha (Mm00442497_m1), p38 MAPK beta (Mm00440955_m1). Expression of target genes was normalized against the expression of Gusb as endogenous control gene. Data were derived from at least 5 independent experiments.
# hippocampal neurons = assay: Morphometric analyses (total dendritic length, Sholl analysis, spines) of cultured hippocampal neurons; format: cell-based, C57BL/6 mice
# Description: Hippocampal cultures and transfection. Hippocampal neurons from newborn C57BL/6 mice were cultured as known in the art. Experiments were done after a culturing period of 10 to 14 days in vitro (DIV). DNA transfection was done on DIV8 using Lipofectamine 2000 (Invitrogen, San Diego, CA). For the studies on dendrite morphology, neurons were analyzed 4-5 days after transfection.
# Morphometric analyses. For 3D Sholl Analysis, total dendritic length and spine morphology were calculated using Object-Image freeware software with a specific set of macros (written by Dr. E. Ruthazer, McGill University, Quebec). Briefly, a z-Stack acquisition was imported, calibrated in Object-Image and manually traced. Total dendritic length was then computed. For Sholl analysis, the shell interval was set at 5 µm. All analyses were performed blind. In all in vitro experiments, for each condition, a minimum of 12 neurons from three independent preparations was analyzed. For the Golgi staining quantifications of 20 neurons for each condition from 4 different injected animals per viral construct were traced and analyzed. MEA recordings. […]
# Immunocytochemistry. […] For the morphometric analyses, fluorescence images were acquired using a confocal laser-scanning microscope TCS SP2 (Leica, Mannheim, Germany) equipped with an inverted fluorescence microscope DM IRE2 (Leica) and Leica confocal scan software. […]
# VEGFC = assay: qRT-PCR analysis of VEGFC expression in cultured hippocampal neurons
# cFos = assay: qRT-PCR analysis of cFos expression in cultured hippocampal neurons
compound,measurement,setting,value
C[C@]12N[C@H](Cc3ccccc31)c1ccccc12 [MK801],expression of VEGFD mRNA,"VEGFD; 10 µM MK801, 10 µM nifedipine or both, DIV5 to DIV10",significantly reduced the expression of VEGFD mRNA
C[S+]([O-])c1ccc(-c2nc(-c3ccncc3)c(-c3ccc(F)cc3)[nH]2)cc1 (stereo not drawn) [SB203580],effect on rVEGFD-induced rescue of dendrite length and complexity,"hippocampal neurons; neurons expressing CaMBP4 (and CaMKIVK75E), treated 3 days with rVEGFD",severely compromised the ability of rVEGFD to rescue the impairment of dendrite length and complexity
same,Sholl analysis,"hippocampal neurons; neurons expressing hrGFP, CaMBP4 or CaMKIVK75E, treated with SB203580 without rVEGFD",no difference compared to the respective untreated controls
CN1CCc2cc3c(cc2[C@H]1[C@@H]1OC(=O)c2c1ccc1c2OCO1)OCO3 [Bicuculline],VEGFD mRNA levels,VEGFD,did not alter VEGFC or VEGFD mRNA levels
same,VEGFC mRNA levels,VEGFC,did not alter VEGFC or VEGFD mRNA levels
same,cFos mRNA,cFos,robust induction of cFos mRNA
